Test results taken from patent US20130065964A1, “PERITONEAL DIALYSIS SOLUTION” (UNIVERSIDAD DE CASTILLA LA MANCHA, priority 2010, published 2013).

How the values were obtained:
Test in all cases: Real-time RT-PCR in cultured PMCs exposed to PDF
Assay type in all cases: cell-based
[1] = system: Collagen III; settings: rat PMCs, 1.5% PDF diluted 1:1 in culture medium, 24 hours, aliskiren 10-100 μM, FIG. 10
Experimental: (§1) After incubating the rat PMCs in 1.5% PDF diluted 1:1 in culture medium for 24 hours, in the presence or absence of aliskiren (10-100 μM), total RNA was isolated and real-time RT-PCR was carried out as described in Material and Methods. The data is expressed as mean±SEM, n=3. * p<0.05 compared to untreated cells (control). # p<0.05, compared to cells treated with 1.5% PDF in the presence of carrier (0).
Rat peritoneal mesothelial cells were isolated by enzymatic digestion in accordance with protocols described in Hjelle J T, Golinska B T, Waters D C, et al. Perit Dial Int 1989; 9: 341-7. Briefly, female rats weighing 200-400 g of the Spragle-Dawley strain were sacrificed pursuant to Royal Decree 1201/2005, of 10 Oct., on protection of animals used for experimental and other scientific purposes. […]
(§2) The RNA expression was evaluated by real-time RT-PCR in PMCs. […] RNA quality and concentration was evaluated by spectrophotometry (Infinite 200, Tecan, Salzburg, Austria) using 1 μl of the RNA sample. […] The dissociation curves were analysed to confirm the amplification of a single PCR product. […] In each experiment, the mean cycle threshold (CT) was calculated from triplicates for each of the genes studied, enabling comparison of the gene expression after different treatments (Methods 25, 402-408 (2001). In order to normalize the data, the gene expression of β-actin was used as endogenous control.

[2] = system: fibronectin; settings: rat PMCs, 1.5% PDF diluted 1:1 in culture medium, 24 hours, aliskiren 10-100 μM, FIG. 11
Experimental: as §1, with “absence of carrier or different concentrations” for “absence”
(§3) Rat peritoneal mesothelial cells were isolated by enzymatic digestion in accordance with protocols described in Hjelle J T, Golinska B T, Waters D C, et al. Perit Dial Int 1989; 9: 341-7. […]
as §2

[3] = system: Collagen I; settings: rat PMCs, 1.5% PDF diluted 1:1 in culture medium, 24 hours, aliskiren 10-100 μM, FIG. 9
Experimental: as §1, with “absence of carrier or different concentrations” for “absence”
as §3, §2

COCCCOc1cc(C[C@@H](C[C@H](N)[C@@H](O)C[C@H](C(=O)NCC(C)(C)C(N)=O)C(C)C)C(C)C)ccc1OC [aliskiren]
lowered: RNAm levels for collagen III [1] | RNAm levels for fibronectin [2] | RNAm levels for collagen I [3]
